US5061794A, “Cephalosporin derivatives, and antibacterial agents” (priority 1986, dated 1991)
Like-named read-outs stand apart in the source and are kept apart here.

Experiments:
P. vulgaris HX-19 = experiment: in vitro antibacterial activity, agar plate dilution method (MIC); type: cell-based; details: Proteus vulgaris, HX19, 16 h, read-out: Minimum Inhibitory Concentration (MIC)
Method in brief: (§1)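 Agar plate dilution on Mueller Hinton agar containing graded compound levels, inoculated at 10^6 CFU/ml from overnight Mueller Hinton broth cultures. MIC (μg/ml) read after 16 h at 37°C.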

P. vulgaris No. 33 = experiment: as above; type: cell-based; details: Proteus vulgaris, 10^6 CFU/ml
Method in brief: as §1

E. cloacae 963 = experiment: as above; type: cell-based; details: 10^6 CFU/ml
Method in brief: as §1

S. marcescens No. 16-2 = experiment: as above; type: cell-based; details: Serratia marcescens, NO.162, 16 h
Method in brief: as §1

M. morganii GN5407 = experiment: as above; type: cell-based; details: Morganella morganii, GN5407, 16 h, read-out: Minimum Inhibitory Concentration (MIC), *M. morganii GN5407, lactamase-producing strain; 10^6 CFU/ml
Method in brief: as §1

E. cloacae Nek 39 = experiment: as above; type: cell-based; details: Enterobacter cloacae, NEK39, 16 h, 10^6 CFU/ml
Method in brief: as §1

K. pneumoniae PCI-602 = experiment: as above; type: cell-based; details: Klebsiella pneumoniae, PCI602, 16 h, 10^6 CFU/ml
Method in brief: as §1

S. marcescens IAM 1184 = experiment: as above; type: cell-based; details: Serratia marcescens, IAM1184, 16 h, read-out: Minimum Inhibitory Concentration (MIC)
Method in brief: as §1

K. oxytoca GN10650 = experiment: as above; type: cell-based; details: Klebsiella oxytoca, 10^6 CFU/ml
Method in brief: as §1

E. coli GN5482 = experiment: as above; type: cell-based; details: Escherichia coli, GN5482, 16 h
Method in brief: as §1

S. aureus 209P NIHJ-JC1 = experiment: as above; type: cell-based; details: Staphylococcus aureus, 16 h
Method in brief: as §1

K. pneumoniae No. 42 = experiment: as above; type: cell-based; details: Klebsiella pneumoniae, NO.42, 16 h, read-out: Minimum Inhibitory Concentration (MIC), *K. pneumoniae No. 42, lactamase-producing strain; 10^6 CFU/ml
Method in brief: as §1

E. coli NIHJ JC2 = experiment: as above; type: cell-based; details: Escherichia coli, NIHJJC2, 16 h, read-out: Minimum Inhibitory Concentration (MIC), E. coli NIHJ JC2, 10^6 CFU/ml, 37° C.
Method in brief: as §1

E. coli CSH(RE45) = experiment: microbe, parasite or virus in culture; type: cell-based; details: Escherichia coli, 16 h, read-out: Minimum Inhibitory Concentration (MIC), *E. coli CSH(RE45), lactamase-producing strain; 10^6 CFU/ml
Method in brief: as §1

E. coli CSH2 (RK1) = experiment: microbe, parasite or virus in culture; type: cell-based; details: Escherichia coli, 16 h, read-out: Minimum Inhibitory Concentration (MIC), *E. coli CSH2 (RK1), lactamase-producing strain; 10^6 CFU/ml
Method in brief: as §1

Ps. aeruginosa AK 109 = experiment: in vitro antibacterial activity, agar plate dilution method (MIC); type: cell-based, Pseudomonas aeruginosa; details: Pseudomonas aeruginosa, AK109, 16 h, read-out: Minimum Inhibitory Concentration (MIC)
Method in brief: as §1

Ps. aeruginosa AKR17 = experiment: as above; type: cell-based, Pseudomonas aeruginosa; details: Pseudomonas aeruginosa, read-out: Minimum Inhibitory Concentration (MIC)
Method in brief: as §1

Ps. aeruginosa IF03445 = experiment: as above; type: cell-based, Pseudomonas aeruginosa; details: Pseudomonas aeruginosa, 10^6 CFU/ml
Method in brief: as §1

A. calcoaceticus No. 4 = experiment: as above; type: cell-based, Acinetobacter calcoaceticus; details: Acinetobacter calcoaceticus, NO.4, 16 h, 10^6 CFU/ml
Method in brief: as §1

Ps. cepacia 23 = experiment: as above; type: cell-based, Pseudomonas cepacia; details: read-out: Minimum Inhibitory Concentration (MIC)
Method in brief: as §1

[1] = NO.33, 16 h, read-out: Minimum Inhibitory Concentration (MIC), *P. vulgaris No. 33, lactamase-producing strain
[2] = Enterobacter cloacae, 963, 16 h, read-out: Minimum Inhibitory Concentration (MIC), E. cloacae 963
[3] = read-out: Minimum Inhibitory Concentration (MIC), *S. marcescens No. 16-2, lactamase-producing strain, 10^6 CFU/ml
[4] = *E. cloacae Nek 39, lactamase-producing strain, read-out: Minimum Inhibitory Concentration (MIC)
[5] = read-out: Minimum Inhibitory Concentration (MIC), K. pneumoniae PCI-602
[6] = GN10650, 16 h, read-out: Minimum Inhibitory Concentration (MIC), *K. oxytoca GN10650, lactamase-producing strain
[7] = read-out: Minimum Inhibitory Concentration (MIC)
[8] = Ps. aeruginosa AK 109, 10^6 CFU/ml
[9] = 16 h, Ps. aeruginosa AKR17, 10^6 CFU/ml
[10] = 16 h, Ps. aeruginosa IF03445, read-out: Minimum Inhibitory Concentration (MIC)
[11] = read-out: Minimum Inhibitory Concentration (MIC), A. calcoaceticus No. 4
[12] = read-out: Minimum Inhibitory Concentration (MIC), *E. cloacae Nek 39, lactamase-producing strain
[13] = read-out: Minimum Inhibitory Concentration (MIC), *E. coli GN5482, lactamase-producing strain, 10^6 CFU/ml
[14] = IF03445, 16 h, read-out: Minimum Inhibitory Concentration (MIC), Ps. aeruginosa IF03445
[15] = A. calcoaceticus No. 4, read-out: Minimum Inhibitory Concentration (MIC)
[16] = *S. marcescens No. 16-2, lactamase-producing strain, 10^6 CFU/ml, read-out: Minimum Inhibitory Concentration (MIC)

SMILES	MIC (P. vulgaris HX-19; P. vulgaris HX-19, 10^6 CFU/ml)	MIC (P. vulgaris No. 33; [1])	MIC (E. cloacae 963; [2])	MIC (S. marcescens No. 16-2; [3])	MIC (M. morganii GN5407)	MIC (K. pneumoniae PCI-602; [5])	MIC (S. marcescens IAM 1184)	MIC (K. oxytoca GN10650; [6])	MIC (E. coli GN5482; [7])	MIC (K. pneumoniae No. 42)	MIC (E. coli NIHJ JC2)	MIC (E. coli CSH(RE45))	MIC (E. coli CSH2 (RK1))	MIC (Ps. aeruginosa AK 109; [8])	MIC (Ps. aeruginosa AKR17; [9])	MIC (Ps. aeruginosa IF03445; [10])	MIC (Ps. cepacia 23; Burkholderia cepacia, 23, 16 h)	MIC (E. cloacae Nek 39; [12])	MIC (S. aureus 209P NIHJ-JC1; [7])	MIC (A. calcoaceticus No. 4; [15])	other results
CC(C)(O/N=C(\C(=O)N[C@@H]1C(=O)N2C(C(=O)O)=C(CSc3nnc(-c4ccc(O)cc4)s3)CS[C@H]12)c1csc(N)n1)C(=O)O [compound 8, disodium 7β-[2-(2-aminothiazol-4-yl)-2-(1-carboxylate-1-methylethoxyimino)acetamido]-3-[5-(4-hydroxyphenyl)-1,3,4-thiadiazol-2-yl)thiomethyl-3-cephem-4-carboxylate, reference compound]	< 6 ng/mL	0.2 µg/mL	6.25 µg/mL	6.25 µg/mL	1.56 µg/mL	0.1 µg/mL	0.78 µg/mL	6.25 µg/mL	3.12 µg/mL	3.12 µg/mL	3.12 µg/mL	0.78 µg/mL	0.78 µg/mL	25 µg/mL	> 100 µg/mL	25 µg/mL	6.25 µg/mL	–	–	–	MIC (E. cloacae Nek 39; [4]): 25 µg/mL; MIC (S. aureus 209P NIHJ-JC1; read-out: Minimum Inhibitory Concentration (MIC), S. aureus 209P NIHJ-JC1, 10^6 CFU/ml, 37° C., 16 hours): 6.25 µg/mL; MIC (A. calcoaceticus No. 4; [11]): 3.12 µg/mL
CCON=C(C(=O)N[C@@H]1C(=O)N2C(C(=O)[O-])=C(CSc3nc(-c4ccc(O)c(O)c4)cs3)CS[C@H]12)c1csc(N)n1.[Na+] [compound 48, sodium 7β-[2-(2-aminothiazol-4-yl)-2-ethoxyiminoacetamido]-3-[4-(3,4-dihydroxyphenyl)-thiazol-2-yl]thiomethyl-3-cephem-4-carboxylate]	–	0.05 µg/mL	0.1 µg/mL	6.25 µg/mL	0.1 µg/mL	< 0.006 µg/mL	0.1 µg/mL	1.56 µg/mL	–	0.05 µg/mL	0.39 µg/mL	0.05 µg/mL	0.025 µg/mL	–	–	–	0.1 µg/mL	0.78 µg/mL	3.12 µg/mL	–	MIC (P. vulgaris HX-19): 12.5 ng/mL; MIC (E. coli GN5482; [13]): 1.56 µg/mL; MIC (Ps. aeruginosa AK 109): 0.39 µg/mL; MIC (Ps. aeruginosa AKR17; AKR17, 16 h): 50 µg/mL; MIC (Ps. aeruginosa IF03445; [14]): 1.56 µg/mL; MIC (A. calcoaceticus No. 4; [11]): 0.39 µg/mL
Nc1nc(/C(=N/OCc2ccccc2)C(=O)N[C@@H]2C(=O)N3C(C(=O)O)=C(CSc4nnc(-c5ccc(O)c(O)c5)o4)CS[C@H]23)cs1 [Ex. 13, sodium 7β-[2-(2-aminothiazol-4-yl)-2-benzyloxyiminoacetamido]-3-[5-(3,4-dihydroxyphenvl)-1,3,4-oxadiazol-2-yl]thiomethyl-3-cephem-4-carboxylate]	< 6 ng/mL	0.025 µg/mL	–	–	0.025 µg/mL	< 0.006 µg/mL	–	0.39 µg/mL	0.39 µg/mL	0.05 µg/mL	0.1 µg/mL	1.56 µg/mL	< 0.006 µg/mL	–	50 µg/mL	–	–	0.1 µg/mL	0.39 µg/mL	0.2 µg/mL	MIC (E. cloacae 963; Enterobacter cloacae, 16 h, E. cloacae 963, read-out: Minimum Inhibitory Concentration (MIC)): 0.0125 µg/mL; MIC (S. marcescens No. 16-2; [7]): 3.12 µg/mL; MIC (S. marcescens IAM 1184; S. marcescens IAM 1184, 10^6 CFU/ml): 0.0125 µg/mL; MIC (Ps. aeruginosa AK 109): 0.39 µg/mL; MIC (Ps. aeruginosa IF03445; [14]): 0.39 µg/mL; MIC (Ps. cepacia 23; Burkholderia cepacia, 16 h, Ps. cepacia 23, 10^6 CFU/ml): 0.025 µg/mL
CO/N=C(\C(=O)N[C@@H]1C(=O)N2C(C(=O)O)=C(CSc3nc(-c4ccccc4)c(CC(=O)O)s3)CS[C@H]12)c1csc(N)n1 [compound 15, disodium 7β-[2-(2-aminothiazol-4-yl)-2-methoxyiminoacetamido]-3-(5-carboxylatemethyl-4-phenylthiazol-2-yl)thiomethyl-3-cephem-4-carboxylate, reference compound]	< 6 ng/mL	0.2 µg/mL	0.39 µg/mL	–	0.39 µg/mL	–	0.78 µg/mL	–	3.12 µg/mL	0.78 µg/mL	0.78 µg/mL	0.78 µg/mL	0.39 µg/mL	100 µg/mL	> 100 µg/mL	100 µg/mL	6.25 µg/mL	12.5 µg/mL	3.12 µg/mL	100 µg/mL	MIC (S. marcescens No. 16-2; [16]): 50 µg/mL; MIC (K. pneumoniae PCI-602; K. pneumoniae PCI-602, read-out: Minimum Inhibitory Concentration (MIC)): 0.2 µg/mL; MIC (K. oxytoca GN10650; 16 h, *K. oxytoca GN10650, lactamase-producing strain, read-out: Minimum Inhibitory Concentration (MIC)): 25 µg/mL
CC(=O)Oc1ccc(-c2nc(SCC3=C(C(=O)O)N4C(=O)[C@@H](NC(=O)/C(=N\OC(C)(C)C(=O)O)c5csc(N)n5)[C@H]4SC3)sc2CC(=O)O)cc1 [compound 20, trisodium 3-[4-(4-acetoxyphenyl)-5-carboxylatemethylthiazol-2-yl]thiomethyl-7β-[2-(2-aminothiazol-4-yl)-2-(1-carboxylate-1-methylethoxyimino)acetamido]-3-cephem-4-carboxylate, reference compound]	< 6 ng/mL	–	6.25 µg/mL	–	3.12 µg/mL	1.56 µg/mL	1.56 µg/mL	3.12 µg/mL	–	3.12 µg/mL	3.12 µg/mL	3.12 µg/mL	3.12 µg/mL	25 µg/mL	> 100 µg/mL	25 µg/mL	6.25 µg/mL	–	–	> 100 µg/mL	MIC (P. vulgaris No. 33; 16 h, *P. vulgaris No. 33, lactamase-producing strain, read-out: Minimum Inhibitory Concentration (MIC)): 0.1 µg/mL; MIC (S. marcescens No. 16-2; [16]): 100 µg/mL; MIC (E. cloacae Nek 39; [4]): 25 µg/mL; MIC (E. coli GN5482; [13]): 6.25 µg/mL; MIC (S. aureus 209P NIHJ-JC1; S. aureus 209P NIHJ-JC1, 10^6 CFU/ml, 37° C., 16 hours, read-out: Minimum Inhibitory Concentration (MIC)): 50 µg/mL
